{"source": "patent US6780976B2", "about": "“Enone reductases, methods for producing same, and methods for selectively reducing a carbon-carbon double bond of an alpha,beta-unsaturated ketone using the reductases” (Daicel Chemical Industries, Ltd., priority 2001, dated 2004)", "key": {"enone reductase [1]": {"tested_on": "enone reductase", "experiment": "Activity of bacterial cell extract of E. coli HB101 (pSE-KLR1) expressing recombinant enone reductase to various substrates", "type": "biochemical, Kluyveromyces lactis", "settings": "for Relative activity: methyl vinyl ketone = 100", "procedure": "(§1) A reaction mixture containing 50 mM potassium phosphate buffer (pH 6.5), 0.2 mM NADPH, 20 mM methyl vinyl ketone, and the enzyme is reacted at 30° C., and the decrease in absorbance at 340 nm, which is associated with the decrease of the amount of NADPH, is measured. 1 U is defined as the amount of enzyme catalyzing a decrease of 1 μmol NADPH in one minute. Quantitative analysis of the polypeptide is conducted by pigment binding methods using the protein assay kit (Bio-Rad Laboratories Inc.).\nE. coli HB101 strain, transformed with plasmid pSE-KLR1 expressing the enone reductase, was cultured overnight in liquid LB medium containing ampicillin at 30° C. 0.1 mM IPTG was added to the culture, and then, was further cultured for 4 hours.\n(§2) The bacterial cells were harvested by centrifugation, and then, were suspended in 50 mM potassium phosphate buffer (pH8.0) containing 0.02% 2-mercaptoethanol, 2mM PMSF, and 10% glycerin. The cells were treated in a closed-chamber sonicator UCD-200TM (Cosmo Bio) for 3 minutes to crush the cells. The bacterial cell lysate was centrifuged and the supernatant was recovered as bacterial cell extract. The extract was assayed for activities to various types of substrates. In addition, E. coli HB 101 strain without the plasmid was cultured overnight in LB culture medium. 0.1 mM IPTG was added to the culture, and then, was further cultured for 4 hours. The bacterial cells were crushed by the same method as above, and the extract was assayed for the activities to various types of substrates."}, "enone reductase [2]": {"tested_on": "enone reductase", "experiment": "Substrate specificity of purified enone reductase", "type": "biochemical, Kluyveromyces lactis", "settings": "enzyme obtained in Example 1", "procedure": "as §1, with “[…],” for “0.2 mM NADPH,”\nThe enzyme obtained in Example 1 was reacted with various enones, ketones, and aldehydes, and the dehydrogenation activity was assayed. The result was represented by a relative activity, taking the dehydrogenation activity of the enzyme on methyl vinyl ketone as 100, and the results are shown in Table 2."}, "[3]": {"tested_on": "E. coli HB 101 strain without the plasmid", "experiment": "Activity of bacterial cell extract of host only (E. coli HB101 without the plasmid) to various substrates", "type": "biochemical", "procedure": "as §1, §2"}, "[4]": {"experiment": "Enone reductase activity of cell-free extracts of E. coli JM109 expressing the homologues YNN4, YL60, YCZ2", "type": "biochemical", "settings": "E. coli JM109 with pSE-YNN4, pSE-YL60 or pSE-YCZ2; 0.1 mM IPTG, 4 hours", "procedure": "as §1\nE. coli JM109 strains, each containing pSE-YNN4, pSE-YL60 or pSE-YCZ2, were cultured in LB culture medium containing ampicillin. The induction of the enzyme was achieved by adding 0.1 mM IPTG and culturing for 4 hours. The bacterial cells were harvested by centrifugation. Respective bacterial cells were suspended in cell lysis buffer (50 mM KPB (pH 8.0), 1 mM EDTA, 0.02% 2-ME, 2 mM PMSF, and 10% glycerol); and the cells were lysed in a sonicator. The supernatant prepared by centrifugation was used as the cell-free extract.\nEach of the cell-free extract was assayed for the enone reductase activity. […] Thus, it was verified that all of the three types of homologues of the enzyme of the present invention had the requisite enone reductase activity."}, "[5]": {"experiment": "Methyl vinyl ketone-reducing activity of the purified enzyme (specific activity, pH and temperature dependency)", "type": "biochemical", "settings": "after Phenyl-Superose, NADPH", "procedure": "as §1\nSpecific activity of the purified enzyme was about 31.7 U/mg.\nThe methyl vinyl ketone-reducing activity of the enzyme obtained in Example 1 was tested, by altering the pH of the reaction with potassium phosphate buffer and Britton Robinson buffer. The optimal pH for the reaction was determined to be 6.5 to 7.0.\nThe methyl vinyl ketone-reducing activity of the enzyme obtained in Example 1 was assayed under standard reaction conditions, with the exception that only the temperatures were altered. The optimal temperature was 37 to 45° C."}, "[6]": {"settings": "coenzyme NADH, activity on methyl vinyl ketone (NADPH) taken as 100"}, "[7]": {"settings": "coenzyme NADPH, activity on methyl vinyl ketone taken as 100"}}, "data": [{"molecule": "C=CC(=O)CC", "note": "[Ethyl vinyl ketone]", "values": [{"measurement": "Specific activity", "setting": "enone reductase [1]", "value": 41.8, "unit": "U/mg"}, {"measurement": "Relative activity", "setting": "enone reductase [2]; [6]", "value": 52, "unit": "%"}, {"measurement": "Relative activity", "setting": "enone reductase [2]; [7]", "value": 537, "unit": "%"}, {"measurement": "Specific activity", "setting": "[3]", "value": 0.073, "unit": "U/mg"}]}, {"molecule": "CC1=CCCC1=O", "note": "[2-methyl-2-cyclopenten-1-one]", "values": [{"measurement": "Relative activity", "setting": "enone reductase [2]; [7]", "value": 0, "unit": "%"}]}, {"molecule": "CC=C(C)C(C)=O", "note": "[3-methyl-3-pentene-2-one]", "values": [{"measurement": "Specific activity", "setting": "enone reductase [1]", "value": 2.52, "unit": "U/mg"}, {"measurement": "Relative activity", "setting": "enone reductase [1]", "value": 32.4, "unit": "%"}, {"measurement": "Relative activity", "setting": "enone reductase [2]; [7]", "value": 48, "unit": "%"}, {"measurement": "Specific activity", "setting": "[3]", "value": 0.004, "unit": "U/mg"}]}, {"molecule": "CC=CC(C)=O", "note": "[3-pentene-2-one]", "values": [{"measurement": "Specific activity", "setting": "enone reductase [1]", "value": 1.23, "unit": "U/mg"}, {"measurement": "Relative activity", "setting": "enone reductase [1]", "value": 15.9, "unit": "%"}, {"measurement": "Relative activity", "setting": "enone reductase [2]; [7]", "value": 16, "unit": "%"}, {"measurement": "Specific activity", "setting": "[3]", "value": 0.015, "unit": "U/mg"}]}, {"molecule": "CC(=O)C=O", "note": "[Methylglyoxal]", "values": [{"measurement": "Relative activity", "setting": "enone reductase [2]; [7]", "value": 1, "unit": "%"}]}, {"molecule": "C/C=C/C(=O)O", "note": "[Crotonic acid]", "values": [{"measurement": "Relative activity", "setting": "enone reductase [2]; [7]", "value": 0, "unit": "%"}]}, {"molecule": "CC(=O)c1ccccc1", "note": "[Acetophenone]", "values": [{"measurement": "Relative activity", "setting": "enone reductase [2]; [7]", "value": 0, "unit": "%"}]}, {"molecule": "CC(=O)C(C)=O", "note": "[2,3-butanedione]", "values": [{"measurement": "Relative activity", "setting": "enone reductase [2]; [7]", "value": 1, "unit": "%"}]}, {"molecule": "C=CC(C)=O", "note": "[Methyl vinyl ketone]", "values": [{"measurement": "Specific activity", "setting": "enone reductase [1]", "value": 7.78, "unit": "U/mg"}, {"measurement": "Relative activity", "setting": "enone reductase [1]", "value": 100, "unit": "%"}, {"measurement": "Relative activity", "setting": "enone reductase [2]; [6]", "value": 14, "unit": "%"}, {"measurement": "Relative activity", "setting": "enone reductase [2]; [7]", "value": 100, "unit": "%"}, {"measurement": "Specific activity", "setting": "[3]", "value": 0.066, "unit": "U/mg"}]}, {"molecule": "CC(=O)C=C(C)C", "note": "[4-methyl-3-pentene-2-one]", "values": [{"measurement": "Relative activity", "setting": "enone reductase [2]; [7]", "value": 1, "unit": "%"}]}, {"molecule": "CC1=CC(=O)CC1", "note": "[3-methyl-2-cyclopenten-1-one]", "values": [{"measurement": "Relative activity", "setting": "enone reductase [2]; [7]", "value": 0, "unit": "%"}]}, {"molecule": "CCC(C)=O", "note": "[2-butanone]", "values": [{"measurement": "Relative activity", "setting": "enone reductase [2]; [7]", "value": 0, "unit": "%"}]}, {"molecule": "YL60: Saccharomyces cerevisiae enone reductase homologue, SEQ ID NO:6, expressed in E. coli from pSE-YL60 (protein) MAQVAIPETMKAVVIEDGKAVVKEGIPIPELEEGFVLIKTLAVAGNPTDWAHIDYKIGPQGSILGCDAAGQIVKLGPAVNPKDFSIGDYIYGFIHGSSVRFPSNGAFAEYSAISTVVAYKSPNELKFLGEDVLPAGPVRSLEGVATIPVSLTTAGLVLTYNLGLDLKWEPSTPQRKGPILLWGGATAVGQSLIQLANKLNGFTKIIVVASRKHEKLLKEYGADELFDYHDIDVVEQIKHKYNNISYLVDCVANQDTLQQVYKCAADKQDATIVELKNLTEENVKKENRRQNVTIDIIRLYSIGGHEVPFGNITLPADSEARKAAIKFIKFINPKINDGQIRHIPVRVYKNGLCDVPHILKDIKYGKNSGEKLVAVLN", "values": [{"measurement": "Enone reductase activity of cell-free extract", "setting": "[4]", "value": 0.198, "unit": "U/mg protein"}]}, {"molecule": "enzyme obtained in Example 1: NADPH-dependent enone reductase purified from Kluyveromyces lactis IFO 1267; amino acid sequence SEQ ID NO:2 (protein) MSVPTTQKAVIIEGDKAVVKTDVSVPELKEGTALVKVEAVAGNPTDWKHIAYKIGPEGSILGCDIAGTVVKLGPNASTDLKVGDTGFGFVHGASQTDPKNGAFAEYARVYPPLFYKSNLTHSTADEISEGPVKNFESAASLPVSLTTAGVSLCHHLGSKMEWHPSTPQHTHPLLIWGGATAVGQQLIQVAKHINAYTKIVTVASKKHEKLLKSYGADDVFDYHDAGVIEQIKSKYPNLQHVIDAVGSEDSIPEAYKVTADSLPATLLEVVPMTIESIPEEIRKDNVKIDITLLYRASGQEILLGATRFPASPEYHEATVKFVKFINPHLNNGDIHHMNIKVFSNGLDDVPALTEGIKEGKNKNVKYVARL", "values": [{"measurement": "Specific activity of the purified enzyme", "setting": "[5]", "value": "about 31.7 U/mg"}]}, {"molecule": "YCZ2: Saccharomyces cerevisiae enone reductase homologue, SEQ ID NO:8, expressed in E. coli from pSE-YCZ2 (protein) MKAVVIEDGKAVVKEGVPIPELEEGFVLIKTLAVAGNPTDWAHIDYKVGPQGSILGCDAAGQIVKLGPAVDPKDFSIGDYIYGFIHGSSVRFPSNGAFAEYSAISTVVAYKSPNELKFLGEDVLPAGPVRSLEGAATIPVSLTTAGLVLTYNLGLNLKWEPSTPQRNGPILLWGGATAVGQSLIQLANKLNGFTKIIVVASRKHEKLLKEYGADQLFDYHDIDVVEQIKHKYNNISYLVDCVANQNTLQQVYKCAADKQDATVVELTNLTEENVKKENRRQNVTIDRTRLYSIGGHEVPFGGITFPADPEARRAATEFVKFINPKISDGQIHHIPARVYKNGLYDVPRILEDIKIGKNSGEKLVAVLN", "values": [{"measurement": "Enone reductase activity of cell-free extract", "setting": "[4]", "value": 0.133, "unit": "U/mg protein"}]}, {"molecule": "YNN4: Saccharomyces cerevisiae enone reductase homologue, SEQ ID NO:4, expressed in E. coli from pSE-YNN4 (protein) MSASIPETMKAVVIENGKAVVKQDIPIPELEEGFVLIKTVAVAGNPTDWKHIDFKIGPQGALLGCDAAGQIVKLGPNVDAARFAIGDYIYGVIHGASVRFPSNGAFAEYSAISSETAYKPAREFRLCGKDKLPEGPVKSLEGAVSLPVSLTTAGMILTHSFGLDMTWKPSKAQRDQPILFWGGATAVGQMLIQLAKKLNGFSKIIVVASRKHEKLLKEYGADELFDYHDADVIEQIKKKYNNIPYLVDCVSNTETIQQVYKCAADDLDATVVQLTVLTEKDIKEEDRRQNVSIEGTLLYLIGGNDVPFGTFTLPADPEYKEAAIKFIKFINPKINDGEIHHIPVKVYKNGLDDIPQLLDDIKHGRNSGEKLVAVLK", "values": [{"measurement": "Enone reductase activity of cell-free extract", "setting": "[4]", "value": 0.268, "unit": "U/mg protein"}]}]}
